Patent US20240124409A1, “GUAIANOLIDE SESQUITERPENE LACTONE DERIVATIVES AND PHARMACEUTICAL USE THEREOF” (NANJING UNIVERSITY OF CHINESE MEDICINE, priority 2021, published 2024)
≈ marks a conversion by molar mass, not a printed value. Marks after values point to notes of the source that are not given here.

Legend:
[1] = Stability in artificial gastric juice environment (HPLC); conditions: 37° C.
Protocol: The samples were dissolved in 500 μL of chromatographic methanol, into which were added 1500 μL of artificial gastric juice, mixed well and then dissolved completely by ultrasound. 50 μL of the above solutions were aspirated precisely, diluted by adding 200 μL of chromatographic methanol, filtered and analyzed by HPLC, wherein the HPLC analysis conditions were mobile phase: 65% methanol -35% water, flow rate: 0.8 mL/min, and column temperature: 25° C., and the initial peak areas were recorded. The above solutions were placed on a constant temperature water bath at 37° C., sampled at 8 h, 16 h and 24 h respectively, and analyzed by HPLC. By calculating the peak areas respectively, the stability data of the corresponding samples in artificial gastric juice environment at 8 h, 16 h and 24 h can be obtained.

Solubility test in water = assay type: physicochemical; conditions: thermodynamic from solid; deionized water, 37° C.
Protocol: Saturated solutions were formulated, filtered and analyzed by HPLC with a sample volume of 1 μL, 3 μL, 5 μL, 10 μL, 15 µL and 20 μL sequentially, and the standard curves of the corresponding compounds were drawn.
[…] of the above compounds were formulated, dissolved by ultrasound for 4 h, and placed on a water bath at 37° C. to stand for 1 h. The resulting unsaturated solutions were centrifuged. 30 μL of supernatants were removed, diluted by adding 200 μL of deionized water, and then filtered.

H22 cells = assay: H22 subcutaneous mouse xenograft model, tumor growth; assay type: in vivo, BALB/c mice; conditions: 2 weeks
Protocol: (§1) H22 cells were cultured and amplified in vitro. Appropriate amount of the cells in logarithmic growth phase were resuspended in a suspension of a serum-free RPMI 1640 medium and Matrigel (1:1) to prepare a cell suspension in 3×105/100 μL under sterile conditions. 100 μL of the cell suspension was subcutaneously inoculated into the armpits of the front left limbs of BALB/c mice with a syringe. When the tumor volume grew to 100-200 mm^3, animals with moderate tumor size were randomly divided into groups, with 6 animals in each group. […] The mice were administered intragastrically every day for 2 weeks. During the administration, the weights and tumor diameters of the mice were measured every day. After the experiment, the mice were sacrificed by cervical dislocation, and the tumors were taken and weighed. The formula for calculating a tumor volume (TV) is: TV=½×a×b^2, where a represents the long diameter of a tumor; b represents the short diameter of a tumor.

Hepa1-6 cells = assay: Hepa1-6 subcutaneous mouse xenograft model; assay type: in vivo, C57BL/6 mice; conditions: 2 weeks
Protocol: as §1, with “Hepa1-6” for “H22”, “DMEM” for “RPMI 1640”, “2.5×10^6/100” for “3×105/100”, “C57BL/6” for “BALB/c”

MDSCs and T cells = assay: H22 xenograft model, flow cytometry of MDSCs and T cells in tumor and spleen; assay type: in vivo, BALB/c mice
Protocol: as §1
The tumor-bearing mice were sacrificed by the cervical dislocation method, placed in a beaker containing 75% alcohol, and the tumors of the mice were peeled off. The tumors were first soaked in a sterile petri dish containing RPMI 1640. After all the tumors were peeled off, fingernail sized tumor was cut off and transferred to a 1.5 mL EP tube. The tumors were cut into small pieces, and transferred into a 15 mL centrifuge tube containing 3-5 mL of digestive enzymes (Collagenase IV 1 mg/mL, Hyaluronidase 1 mg/mL, and DNase I 20 U/mL), and digested in a shaker at 200 rpm and 37° C. for 1 h. After digestion, the mixture was allowed to pass through a 200-mesh screen to obtain the suspension of the tumor cells. The resulting tumor suspension was centrifuged at 1600 rpm for 5 min. The supernatant was aspirated away. 1 mL of 1×PBS was added into each tube to resuspend the cells. The cell suspension was transferred into a 1.5 mL EP tube, and centrifuged at 1600 rpm for 5 min. The supernatant was removed. 100 μL of 1×PBS was used in each tube to resuspend the cells respectively. Then 1 μL of a viability dye was added. The mixture was incubated at room temperature in the dark for 15 min after being mixed well. At the same time, the spleen was taken out with a tweezer, placed into a sterile petri dish containing 5 mL of the RPMI 1640 medium, and positioned on a 200-mesh cell screen. The spleen was gently ground with the needle core of a 10 mL syringe. A small amount of the RPMI 1640 medium was aspirated to rinse the cell screen. The spleen cell suspension was rinsed into a 15 mL centrifuge tube, and centrifuged at 1600 rpm for 5 min to collect cells. The cells were washed once with 1×PBS. 3 mL of an erythrocyte lysate (diluted with ddH2O) was added to each tube to lyse for 5 min. After lysing, 10 mL of 1×PBS was added to each tube to stop lysing. The mixture was centrifuged at 1600 rpm for 5 min. 1 mL of 1×PBS was added to each 15 mL centrifuge tube. The mixture was transferred to a 1.5 mL EP tube, and centrifuged at 1600 rpm for 5 min. 1 mL of 1×PBS was added to each tube of the stained tumor cells and lysed spleen cells respectively to wash once. The mixture was centrifuged at 1600 rpm for 5 min, and the supernatant was removed. 100 μL of 1×PBS was used to resuspend the tumor cells and spleen cells respectively. 1 μL of the FcX™ antibody was then added to each tube. The mixture was incubated at room temperature in the dark for 10 min. After the incubation, 1 μL of each of the CD45, CD11b and Gr1 antibodies was added to each tube sequentially. The mixture was incubated at 4° C. in the dark for 30 min, and washed once with 1×PBS after the incubation. The supernatant was discarded. 300 μL of 1×PBS was used to resuspend the cells. The mixture was filtered through a filter membrane into a flow tube, and detected on a machine.

| SMILES | Non-degradation percentage at 8 h [1] [%] | Non-degradation percentage at 16 h [1] [%] | Non-degradation percentage at 24 h [1] [%] | solubility (Solubility test in water) [µg/mL] | Tumor growth inhibition (H22 cells; 8.43 mg/kg/d i.g.) [%] | Tumor weight (H22 cells; 8.43 mg/kg/d i.g.) [g] | Tumor growth inhibition (Hepa1-6 cells; 8.43 mg/kg/d i.g.) [%***] | Tumor weight (Hepa1-6 cells; 8.43 mg/kg/d i.g.) [g] | MDSCs in Spleen (MDSCs and T cells; 8.43 mg/kg/d) [%] | MDSCs in tumor (MDSCs and T cells; 8.43 mg/kg/d) [%] | T Cells in Spleen (MDSCs and T cells; 8.43 mg/kg/d) [%] | T Cells in tumor (MDSCs and T cells; 8.43 mg/kg/d) [%] | Tumor growth inhibition (H22 cells; 10 mg/kg/d i.g.) [%] | Tumor weight (H22 cells; 10 mg/kg/d i.g.) [g] | Tumor growth inhibition (Hepa1-6 cells; 10 mg/kg/d i.g.) [%***] | Tumor weight (Hepa1-6 cells; 10 mg/kg/d i.g.) [g] | MDSCs in Spleen (MDSCs and T cells; 10 mg/kg/d) [%] | MDSCs in tumor (MDSCs and T cells; 10 mg/kg/d) [%] | T Cells in Spleen (MDSCs and T cells; 10 mg/kg/d) [%] | T Cells in tumor (MDSCs and T cells; 10 mg/kg/d) [%] |
| --- | --- | --- | --- | --- | --- | --- | --- | --- | --- | --- | --- | --- | --- | --- | --- | --- | --- | --- | --- | --- |
| C=C1C(=O)O[C@@H]2[C@@H]3[C@]4(CC[C@@]3(C)O)C[C@]4(C)CC[C@@H]12 [Compound 1] | 99.08 | 98.76 | 98.16 | 1140 (≈ 4.35 mM) |  |  |  |  |  |  |  |  |  |  |  |  |  |  |  |  |
| CN(C)C[C@@H]1C(=O)O[C@H]2[C@H]1CC[C@@]1(C)C[C@]13CC[C@@](C)(O)[C@H]23 [Compound 23] |  |  |  |  | 42.92 | 4.88 | 96.78 | 0.03 | 23.10 | 7.86 | 37.19 | 29.44 |  |  |  |  |  |  |  |  |
| C=C1C(=O)O[C@@H]2[C@H]3C(C)=CC[C@@]34O[C@@]4(C)CC[C@@H]12 [arglabin, reference compound] | 50.14 | 48.70 | 43.40 |  |  |  |  |  |  |  |  |  | 39.43 | 5.18 | 95.86 | 0.04 | 27.89 | 27.0 | 27.02 | 17.72 |
